In general, MIC refers to the lowest concentration that inhibits growth of the organism.

Converted amounts (≈) assume the structure as drawn. Like-named read-outs stand apart in the source and are kept apart here.

The values below come from patent US4925855A, “Imidazole derivatives and antimycotics containing them” (CL Pharma Aktiengesellschaft, priority 1986, dated 1990).

Data set [1] in a line: Determination of the lethal dose in mice, single oral administration. The data set is classed as in vivo. Conditions: for LD100: oral, administration once. The method, then: (§1) Determination of the lethal dose of 1-(2-(2,4-dichlorophenyl)-2-(3-(4-chlorophenylthio)propylamino)ethyl)-1H-imidazole dihydrochloride (compound No. 19) in mice and rats on administration once.
(§2) In each case, oral doses of 0, 500, 1,000 and 3,000 mg/kg of body weight were administered to four groups of female and male animals.

Data set [2] is described as follows: Determination of the LD50 in rats by i.v. administration. Conditions: 12.5-100 mg/kg. The data set is classed as in vivo. How it is done:
(§3) Determination of the LD50 of 1-(2-(2,4-di-chlorophenyl)-2-(3-(4-chlorophenylthio)propylamino)-ethyl)-1H-imidazole dihydrochloride (compound No. 19) in mice and rats by i.v. administration. In each case, 0 (0.9% NaCl solution), 12.5, 25.0, 50.0 and 100 mg/kg of body weight were injected i.v. into 5 groups of female and male animals.

Data set [3] has as its system Salmonella typhimurium strains TA 1535, TA 1537, TA 1538, TA 98 and TA 100. In words: Potential to cause gene mutations in Salmonella typhimurium. The data set is classed as cell-based. Conditions: with or without metabolic activator (S 9 mix); 10-1,000 and 3.3-333.3 μg/plate. The method, then:
Compound No. 19 was investigated for its potential to cause gene mutations in five Salmonella typhimurium strains TA 1535, TA 1537, TA 1538, TA 98 and TA 100.
The following concentrations were tested, both with metabolic activator (S 9 mix) and without metabolic activator.

The next data set concerns Aspergillus fumigatus. Put plainly: MIC in serial dilution test, Aspergillus fumigatus. The data set is classed as cell-based. How it is done:
(§4) The antimycotic activities of the compounds were measured by in vitro determination of the minimum inhibitory concentration (MIC) for yeasts, molds and dermatophytes.
(§5) 6 dermatophytes, 2 yeasts and 4 molds were used for testing with fungi, as follows:
Aspergillus fumigatus (Asp.fu.)
(§6) The minimum inhibitory concentration (MIC) was determined in serial dilution tests in test tubes. The volume of the liquid nutrient medium in each test tube was 4.5 ml.
(§7) The substances were dissolved in DMSO and diluted with sterile distilled water to 10 concentrations (100, 50, 25, 12.5, 6.25, 3.12, 1.56, 0.78, 0.39 and 0.19 μg/ml). 0.5 ml of each of these dilution steps was added to the liquid nutrient medium. Thus, a constant concentration of solvent in all the nutrient media was ensured, irrespective of the active compound concentration.
(§8) A comparison solution which contained only the solvent in appropriate concentration was included when carrying out each of the tests.
(§9) The individual strains were maintained on Sabouraud/beerwort agar slants and, before they were used in a test, they underwent a passage on a modified Sabouraud liquid nutrient medium. The strains were then harvested, washed and converted into a suspension of McFaerland 3 in the case of yeasts and molds and of McFaerland 4-5 in the case of dermatophytes.
(§10) The amount of material inoculated (inoculum) was 100 μl/test tube (inoculated densities: yeasts […] of the liquid nutrient medium was 6.0. After inoculation had taken place the fungi were incubated at 22° C. for 14 days.
(§11) The MIC was then determined. The concentration step at which growth was no longer visible on macroscopic inspection was used for the determination of the MIC. The comparison substance used was 1-(2-(2,4-dichlorophenyl)-2-(2,4-dichlorophenylmethoxy)ethyl)-1H-imidazoleas nitrate (compound A).

Data set [4] is described as follows: Determination of the LD50 in mice by i.v. administration. The data set is classed as in vivo. Conditions: 12.5-100 mg/kg. How it is done:
as §3

The nature of data set [5]: Determination of the lethal dose in rats, single oral administration. The data set is classed as in vivo. The conditions noted are these: for LD100: oral, administration once. The method, then:
as §1, §2

The test system of another data set is Candida albicans. Put plainly: MIC in serial dilution test, Candida albicans. The data set is classed as cell-based. Conditions: 336 h. How it is done: as §4, §5
Candida albicans (C.alb.)
as §6, §7, §8, §9, §10, §11

The test system of another data set is Candida tropicalis. Put plainly: MIC in serial dilution test, Candida tropicalis. The data set is classed as cell-based. The conditions noted are these: 336 h. The method, then: as §4, §5
Candida tropicalis (C.trop.)
as §6, §7, §8, §9, §10, §11

The next data set has as its system Microsporum gypseum. In words: MIC in serial dilution test, Microsporum gypseum. The data set is classed as cell-based. Conditions: Nannizzia gypsea, 336 h. The method, then:
as §4, §5
Microsporum gypseum (Mi.gyp.)
as §6, §7, §8, §9, §10, §11

The subject of a further data set is Microsporum canis. Put plainly: MIC in serial dilution test, Microsporum canis. The data set is classed as cell-based. Conditions: 336 h, pH 6, Microsporum canis, pH 6.0, 22° C., 14 days, read-out: MIC values, Mi. can. How it is done:
as §4, §5
Microsporum canis (Mi.can.)
as §6, §7, §8, §9, §10, §11

The test system of data set [6] is Trichophyton mentagrophytes. Put plainly: MIC in serial dilution test, Trichophyton mentagrophytes. The data set is classed as cell-based. Conditions: 336 h, pH 6, Trichophyton mentagrophytes, pH 6.0, 22° C., 14 days, read-out: MIC values, Tri. me. How it is done:
as §4, §5
Trichophyton mentagrophytes
as §6, §7, §8, §9, §10, §11

The next data set relates to Mucor mucedo plus. In words: MIC in serial dilution test, Mucor mucedo plus. The data set is classed as cell-based. The conditions noted are these: 336 h, pH 6, Mucor mucedo plus, pH 6.0, 22° C., 14 days, read-out: MIC values, Mu. mu+. The method, then: as §4, §5
Mucor mucedo plus (Mu.mu^+)
as §6, §7, §8, §9, §10, §11

Another data set deals with Absidia ramosa. Put plainly: MIC in serial dilution test, Absidia ramosa. The data set is classed as cell-based. Conditions: Lichtheimia ramosa, 336 h, pH 6, Absidia ramosa; pH 6.0, 22° C., 14 days; read-out: MIC values, Abs. ra. The method, then: as §4, §5
Absidia ramosa (Abs.ra.)
as §6, §7, §8, §9, §10, §11

Another data set deals with Epidermophyton floccosum. Put plainly: MIC in serial dilution test, Epidermophyton floccosum. The data set is classed as cell-based. Conditions: 336 h, pH 6, Epidermophyton floccosum, pH 6.0, 22° C., 14 days, read-out: MIC values, Ep. flo. The method, then: as §4, §5
Epidermophyton floccosum
as §6, §7, §8, §9, §10, §11

The subject of the next data set is Trichophyton verrucosum. In words: MIC in serial dilution test, Trichophyton verrucosum. The data set is classed as cell-based. The conditions noted are these: 336 h, pH 6, Trichophyton verrucosum, pH 6.0, 22° C., 14 days, read-out: MIC values, Tri. ve. The method, then: as §4, §5
Trichophyton verrucosum (Tri.ve.)
as §6, §7, §8, §9, §10, §11

A further data set has as its system Trichophyton rubrum. Put plainly: MIC in serial dilution test, Trichophyton rubrum. The data set is classed as cell-based. The conditions noted are these: 336 h, pH 6, Trichophyton rubrum, pH 6.0, 22° C., 14 days, read-out: MIC values, Tri. ru. The method, then: as §4, §5
Trichophyton rubrum (Tri.ru.)
as §6, §7, §8, §9, §10, §11

A further data set deals with Mucor mucedo minus. In words: MIC in serial dilution test, Mucor mucedo minus. The data set is classed as cell-based. The conditions noted are these: 336 h, pH 6, Mucor mucedo minus, pH 6.0, 22° C., 14 days, read-out: MIC values, Mu. mu-. How it is done:
as §4, §5
Mucor mucedo minus (Mu.mu^-)
as §6, §7, §8, §9, §10, §11

The mark [7] stands for this setting: oral, 500, 1,000 and 3,000 mg/kg.
The mark [8] stands for this setting: pH 6, Candida tropicalis, pH 6.0, 22° C., 14 days, read-out: MIC values, C. trop.

Turning to `Cl.Cl.Clc1ccc(SCCCNC(Cn2ccnc2)c2ccc(Cl)cc2Cl)cc1` (centres unmarked) [Compound No. 19, 1-(2-(2,4-dichlorophenyl)-2-(3-(4-chlorophenylthio)propylamino)ethyl)-1H-imidazole dihydrochloride], the LD100 was > 1,000 mg/kg in data set [1] (female), above 500 mg/kg in data set [1] (male), above 500 mg/kg in [5] (female) and > 1,000 mg/kg in data set [5] (male). Also, the clinical signs result in [1] (setting [7]) is “Inactivity, convulsions”; in [2] it was “Inactivity, necrotic tail, convulsions”; in [4] it was “Inactivity, necrotic tail”; in [5] (setting [7]), “Inactivity, ruffled fur, convulsions”. For the same molecule, the mutagenic activity entry in data set [3] is reported as “No mutagenic activity whatever was observed”. Further, the “MIC values, Asp. fu.” value against Aspergillus fumigatus (20160 min, pH 6) is 0,78 μg/ml.

As to `Clc1ccc(SCCCNC(Cn2ccnc2)c2ccc(Cl)cc2Cl)cc1` (centres unmarked) [compound 20, 1-(2-(2,4-Dichlorophenyl)-2-(3-(4-chlorophenylthio)-propylamino)ethyl)-1H-imidazole], in the data set on Aspergillus fumigatus (20160 min, pH 6), the “MIC values, Asp. fu.” value is listed as 3,12 μg/ml.

In the case of `CN(CCCSCc1ccc(Cl)cc1)C(Cn1ccnc1)c1ccc(Cl)cc1Cl` (centres unmarked) [compound 36, 1-(2-(2,4-Dichlorophenyl)-2-(N-methyl-3-(4-chlorobenzylthio)propylamino)ethyl)-1H-imidazole], the “MIC values, Asp. fu.” value with Aspergillus fumigatus (20160 min, pH 6) is given as 25,0 μg/ml.

As for `Clc1ccc(COC(Cn2ccnc2)c2ccc(Cl)cc2Cl)c(Cl)c1` (centres unmarked) [A, 1-(2-(2,4-dichlorophenyl)-2-(2,4-dichlorophenylmethoxy)ethyl)-1H-imidazole, reference compound], the minimum inhibitory concentration (MIC) in the data set with Candida albicans (pH 6, read-out: MIC values, C. alb) came to 12.5 µg/mL (≈ 30 µM); with Candida tropicalis (pH 6, read-out: MIC values, C. trop), 12.5 µg/mL (≈ 30 µM); with Microsporum gypseum (pH 6, read-out: MIC values, Mi. gyp) it was 3.12 µg/mL (≈ 7.5 µM). Further, in the data set with Aspergillus fumigatus (Aspergillus fumigatus, pH 6.0, 22° C., 14 days), the “MIC values, Asp. fu.” value is 3,12 μg/ml.

As to `Clc1ccc(SCCCCCNC(Cn2ccnc2)c2ccc(Cl)cc2Cl)cc1` (centres unmarked) [compound 38], in the data set on Aspergillus fumigatus (20160 min, pH 6), the “MIC values, Asp. fu.” value was 6,25 μg/ml.

Turning to `Clc1ccc(SCCNC(Cn2ccnc2)c2ccc(Cl)cc2Cl)cc1` (centres unmarked) [compound 3], the “MIC values, Asp. fu.” value against Aspergillus fumigatus (20160 min, pH 6) is reported as 6,25 μg/ml.

As to `Clc1ccc(C(Cn2ccnc2)NCCCSc2ccccc2)c(Cl)c1` (centres unmarked) [compound 16], the “MIC values, Asp. fu.” value against Aspergillus fumigatus (20160 min, pH 6) is 3,12 μg/ml.

In the case of `Clc1ccc(C(Cn2ccnc2)NCCSc2ccc(Br)cc2)c(Cl)c1` (centres unmarked) [compound 4], the “MIC values, Asp. fu.” value in the data set with Aspergillus fumigatus (20160 min, pH 6) is listed as 6,25 μg/ml.

For `Clc1ccc(C(Cn2ccnc2)NCCCSc2ccc(Br)cc2)c(Cl)c1` (centres unmarked) [compound 23, 1-(2-(2,4-dichlorophenyl)-2-(3-(4-bromophenylthio)propylamino)ethyl)-1H-imidazole], the MIC in the data set on Microsporum canis and in the data set with Candida tropicalis (setting [8]) was 1.56 µg/mL (≈ 3.21 µM) in each case. The “MIC values, Asp. fu.” value in the data set on Aspergillus fumigatus (20160 min, pH 6) was 1,56 μg/ml.

Consider `Fc1ccc(SCCCNC(Cn2ccnc2)c2ccc(Cl)cc2Cl)cc1` (centres unmarked) [compound 18], for which the MIC in data set [6] amounted to 6.25 µg/mL (≈ 14.7 µM); with Mucor mucedo plus, 12.5 µg/mL; in the data set on Candida albicans (pH 6.0, 22° C., 14 days, read-out: MIC values, C. alb), 12.5 µg/mL (≈ 29.5 µM); in the data set on Microsporum canis it was 6.25 µg/mL (≈ 14.7 µM); with Candida tropicalis (setting [8]), 6.25 µg/mL (≈ 14.7 µM); with Absidia ramosa it was 6.25 µg/mL (≈ 14.7 µM). For the same molecule, the minimum inhibitory concentration (MIC) in the data set with Epidermophyton floccosum was 3.12 µg/mL (≈ 7.35 µM); in the data set with Trichophyton verrucosum, 0.39 µg/mL (≈ 0.919 µM); in the data set with Microsporum gypseum (Microsporum gypseum, pH 6.0, 22° C., 14 days, read-out: MIC values, Mi. gyp) it was 3.12 µg/mL (≈ 7.35 µM); in the data set with Trichophyton rubrum, 0.78 µg/mL (≈ 1.84 µM); with Mucor mucedo minus, 12.5 µg/mL (≈ 29.5 µM). Further, in the data set on Aspergillus fumigatus (20160 min, pH 6), the “MIC values, Asp. fu.” value is listed as 12,5 μg/ml.
